pIC50: −log10 of the molar value.
Experiments:
[1] = target: T1, Amine oxidase [flavin-containing] A (Rattus norvegicus, UniProt P21396); test: Inhibition of rat brain MAO-A using kynuramine substrate […] at 10 uM by spectrophotometric assay
T1 sequence (P21396 whole entry): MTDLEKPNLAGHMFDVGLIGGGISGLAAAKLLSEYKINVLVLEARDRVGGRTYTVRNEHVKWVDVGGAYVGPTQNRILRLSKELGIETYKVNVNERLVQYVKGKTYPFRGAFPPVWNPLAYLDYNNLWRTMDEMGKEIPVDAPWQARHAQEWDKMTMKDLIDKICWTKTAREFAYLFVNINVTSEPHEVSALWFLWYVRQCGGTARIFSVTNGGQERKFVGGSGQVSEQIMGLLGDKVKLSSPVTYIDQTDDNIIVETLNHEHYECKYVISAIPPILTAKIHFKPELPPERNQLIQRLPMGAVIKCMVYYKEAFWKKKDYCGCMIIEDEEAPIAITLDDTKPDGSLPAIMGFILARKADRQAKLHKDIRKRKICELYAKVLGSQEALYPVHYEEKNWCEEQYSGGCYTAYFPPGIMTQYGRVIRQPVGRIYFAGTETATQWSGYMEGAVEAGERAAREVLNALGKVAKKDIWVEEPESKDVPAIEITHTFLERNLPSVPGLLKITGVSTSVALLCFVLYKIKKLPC

[2] = target: T2, Amine oxidase [flavin-containing] B (Rattus norvegicus, UniProt P19643); test: Inhibition of rat brain MAO-B using kynuramine substrate […] by spectrophotometric assay
T2 sequence (P19643 whole entry): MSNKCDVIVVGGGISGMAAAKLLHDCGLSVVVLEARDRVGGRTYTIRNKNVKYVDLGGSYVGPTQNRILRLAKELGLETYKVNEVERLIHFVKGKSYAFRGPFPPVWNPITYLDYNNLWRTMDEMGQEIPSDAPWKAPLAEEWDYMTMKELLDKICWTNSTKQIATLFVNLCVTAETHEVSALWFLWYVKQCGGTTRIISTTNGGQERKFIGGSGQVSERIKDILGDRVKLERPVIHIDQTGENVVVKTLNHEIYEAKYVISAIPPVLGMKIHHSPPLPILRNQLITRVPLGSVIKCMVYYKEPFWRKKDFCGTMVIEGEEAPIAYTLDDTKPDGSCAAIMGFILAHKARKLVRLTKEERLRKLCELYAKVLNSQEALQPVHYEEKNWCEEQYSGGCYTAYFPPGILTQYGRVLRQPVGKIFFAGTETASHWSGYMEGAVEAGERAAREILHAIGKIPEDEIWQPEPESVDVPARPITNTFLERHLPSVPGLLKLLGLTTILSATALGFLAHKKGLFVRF

Acetylcholinesterase [3] = target: Acetylcholinesterase (Electrophorus electricus, UniProt O42275); test: Inhibition of electric eel AChE by spectrophotometric Ellman's method
Cholinesterase = Cholinesterase (Equus caballus, UniProt P81908); test: Inhibition of equine serum BuChE by spectrophotometric Ellman's method
[4] = target: T1, Amine oxidase [flavin-containing] A; test: Inhibition of rat brain MAO-A using kynuramine substrate […] by spectrophotometric assay
[5] = target: Cholinesterase (Equus caballus) (UniProt P81908); test: Inhibition of equine serum BuChE at 10 uM by spectrophotometric Ellman's method
Acetylcholinesterase [6] = target: Acetylcholinesterase (Homo sapiens, UniProt P22303); test: Inhibition of human recombinant AChE by spectrophotometric Ellman's method
[7] = target: T2, Amine oxidase [flavin-containing] B; test: Inhibition of rat brain MAO-B using kynuramine substrate […] at 10 uM by spectrophotometric assay
[8] = target: T3, Amine oxidase [flavin-containing] A (Homo sapiens, UniProt P21397); test: Inhibition of human recombinant MAO-A using kynuramine substrate by spectrophotometric assay
T3 sequence (P21397 whole entry): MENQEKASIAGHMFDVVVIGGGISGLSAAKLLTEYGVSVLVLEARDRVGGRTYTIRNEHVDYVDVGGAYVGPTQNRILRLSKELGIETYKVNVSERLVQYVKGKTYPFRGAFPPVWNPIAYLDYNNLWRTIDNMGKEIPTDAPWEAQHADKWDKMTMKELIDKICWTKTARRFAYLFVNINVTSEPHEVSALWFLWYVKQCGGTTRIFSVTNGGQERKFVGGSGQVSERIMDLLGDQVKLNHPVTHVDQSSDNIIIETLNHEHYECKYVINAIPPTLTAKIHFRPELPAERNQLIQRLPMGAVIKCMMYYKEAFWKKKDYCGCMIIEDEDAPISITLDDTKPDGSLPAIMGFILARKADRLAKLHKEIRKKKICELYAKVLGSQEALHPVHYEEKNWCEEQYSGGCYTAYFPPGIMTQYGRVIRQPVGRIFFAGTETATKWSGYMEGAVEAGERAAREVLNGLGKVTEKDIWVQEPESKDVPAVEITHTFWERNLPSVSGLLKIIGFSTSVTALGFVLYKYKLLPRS

[9] = target: T4, Amine oxidase [flavin-containing] B (Homo sapiens, UniProt P27338)
T4 sequence (P27338 whole entry): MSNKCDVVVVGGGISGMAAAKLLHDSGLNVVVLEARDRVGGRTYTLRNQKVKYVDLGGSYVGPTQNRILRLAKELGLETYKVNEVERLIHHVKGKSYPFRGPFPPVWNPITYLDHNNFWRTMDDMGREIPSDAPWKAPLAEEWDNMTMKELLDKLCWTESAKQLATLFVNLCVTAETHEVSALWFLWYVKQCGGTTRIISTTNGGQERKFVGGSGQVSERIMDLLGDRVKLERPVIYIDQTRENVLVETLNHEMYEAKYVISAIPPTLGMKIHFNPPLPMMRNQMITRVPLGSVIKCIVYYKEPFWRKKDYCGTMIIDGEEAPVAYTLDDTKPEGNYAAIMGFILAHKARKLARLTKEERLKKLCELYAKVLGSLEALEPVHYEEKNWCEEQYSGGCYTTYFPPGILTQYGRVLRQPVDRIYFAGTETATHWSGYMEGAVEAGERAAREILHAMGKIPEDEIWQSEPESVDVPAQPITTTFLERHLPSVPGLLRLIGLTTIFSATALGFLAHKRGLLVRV
Description: Inhibition of human recombinant MAO-B using kynuramine substrate by spectrophotometric assay

[10] = target: T3, Amine oxidase [flavin-containing] A; test: Inhibition of human recombinant MAO-A using kynuramine substrate at 10 uM by spectrophotometric assay

Sequence of Cholinesterase (Equus caballus) (P81908 whole entry): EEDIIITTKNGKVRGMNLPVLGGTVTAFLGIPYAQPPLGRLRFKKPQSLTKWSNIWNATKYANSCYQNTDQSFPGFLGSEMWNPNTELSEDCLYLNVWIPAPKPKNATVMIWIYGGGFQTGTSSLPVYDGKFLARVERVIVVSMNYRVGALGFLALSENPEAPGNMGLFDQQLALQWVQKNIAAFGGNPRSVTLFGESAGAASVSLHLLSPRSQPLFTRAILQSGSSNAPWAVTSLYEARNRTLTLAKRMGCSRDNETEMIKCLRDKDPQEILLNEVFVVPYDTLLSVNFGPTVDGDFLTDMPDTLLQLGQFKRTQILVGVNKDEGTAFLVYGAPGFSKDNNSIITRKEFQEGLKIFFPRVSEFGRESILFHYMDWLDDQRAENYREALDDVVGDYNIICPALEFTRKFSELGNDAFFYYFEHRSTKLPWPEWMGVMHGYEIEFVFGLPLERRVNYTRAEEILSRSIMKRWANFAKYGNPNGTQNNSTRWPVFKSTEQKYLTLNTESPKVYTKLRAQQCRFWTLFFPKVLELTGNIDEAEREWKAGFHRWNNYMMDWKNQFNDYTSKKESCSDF
Sequence of Cholinesterase (P81908 whole entry): as above
Sequence of Acetylcholinesterase (Homo sapiens, UniProt P22303) (P22303 whole entry): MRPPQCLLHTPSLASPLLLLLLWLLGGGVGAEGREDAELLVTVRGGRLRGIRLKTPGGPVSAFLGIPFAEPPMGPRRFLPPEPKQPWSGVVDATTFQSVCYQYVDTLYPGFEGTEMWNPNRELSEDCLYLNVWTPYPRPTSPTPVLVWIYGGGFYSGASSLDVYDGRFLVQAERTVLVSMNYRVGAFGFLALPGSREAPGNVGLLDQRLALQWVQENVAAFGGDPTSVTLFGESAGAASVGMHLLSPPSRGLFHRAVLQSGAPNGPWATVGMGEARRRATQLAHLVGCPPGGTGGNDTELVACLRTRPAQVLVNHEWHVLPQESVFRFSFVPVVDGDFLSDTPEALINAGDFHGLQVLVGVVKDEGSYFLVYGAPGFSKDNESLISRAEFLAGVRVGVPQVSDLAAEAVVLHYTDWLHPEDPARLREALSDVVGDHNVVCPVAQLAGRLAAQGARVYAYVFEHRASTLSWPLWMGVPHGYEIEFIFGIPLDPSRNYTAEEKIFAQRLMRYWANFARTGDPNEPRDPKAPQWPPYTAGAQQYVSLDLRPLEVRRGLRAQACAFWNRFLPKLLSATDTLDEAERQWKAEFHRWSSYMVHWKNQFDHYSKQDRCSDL
Sequence of Acetylcholinesterase (Electrophorus electricus, UniProt O42275) (O42275 whole entry): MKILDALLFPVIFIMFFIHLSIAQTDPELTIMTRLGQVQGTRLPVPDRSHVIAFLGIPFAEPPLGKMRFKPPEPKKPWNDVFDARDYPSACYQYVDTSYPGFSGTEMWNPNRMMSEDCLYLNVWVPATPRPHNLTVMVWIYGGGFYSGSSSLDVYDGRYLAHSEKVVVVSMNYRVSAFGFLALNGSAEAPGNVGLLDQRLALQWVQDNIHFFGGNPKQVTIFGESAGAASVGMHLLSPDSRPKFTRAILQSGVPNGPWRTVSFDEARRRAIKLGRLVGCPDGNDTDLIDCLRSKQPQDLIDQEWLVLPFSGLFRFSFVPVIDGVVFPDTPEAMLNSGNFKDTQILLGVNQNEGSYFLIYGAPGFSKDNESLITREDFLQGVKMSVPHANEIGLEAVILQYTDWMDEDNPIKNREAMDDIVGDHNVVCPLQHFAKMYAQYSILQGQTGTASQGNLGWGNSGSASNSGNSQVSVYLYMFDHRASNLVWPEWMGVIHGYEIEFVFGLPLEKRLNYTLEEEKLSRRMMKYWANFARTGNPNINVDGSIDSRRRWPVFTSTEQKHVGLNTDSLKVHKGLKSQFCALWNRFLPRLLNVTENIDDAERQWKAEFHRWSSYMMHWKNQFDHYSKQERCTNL

SMILES	inhibition at 10 µM [1]	pIC50 [2]	pIC50 (Acetylcholinesterase [3])	pIC50 (Cholinesterase)	pIC50 [4]	inhibition [5]	pIC50 (Acetylcholinesterase [6])	inhibition at 10 µM [7]	pIC50 [8]	pIC50 [9]	inhibition at 10 µM [10]
COc1cccc(CN(C)Cc2cccc(COc3ccc4ccc(=O)oc4c3)c2)c1	14%	5.60	5.18	6.06							
CCN(CCCOc1ccc2c(C)c(C)c(=O)oc2c1)Cc1ccccc1		6.01	6.44	5.40	5.13						
CN(Cc1cccc(Cl)c1)Cc1cccc(COc2ccc3ccc(=O)oc3c2)c1	17%	5.47	5.24	6.51							
Cc1c(C)c2ccc(OCc3ccc(CN(C)Cc4ccc(C#N)cc4)cc3)cc2oc1=O			5.38			18%	5.41				
CCN(CC)Cc1cccc(COc2ccc3ccc(=O)oc3c2)c1	43%		5.77	5.17				35%			
CN(CCc1ccc(COc2ccc3ccc(=O)oc3c2)cc1)Cc1ccccc1			6.07	6.28							
CN(Cc1ccc(COc2ccc3ccc(=O)oc3c2)cc1)Cc1cccc(Cl)c1	12%	5.57	6.23	5.92							
CN(Cc1ccccc1)Cc1ccc(COc2ccc3ccc(=O)oc3c2)cc1			6.12	4.96			6.02				
CN(Cc1ccc(C#N)cc1)Cc1ccc(COc2ccc3c(CO)cc(=O)oc3c2)cc1	0%	7.46	5.20			23%			5.35	8.24	
Cc1cc(=O)oc2cc(OCc3ccc(CN(C)Cc4ccccc4)cc3)ccc12	10%	5.39	6.74	6.00			6.04				
Cc1c(C)c2ccc(OCCCCCN(C)Cc3ccc(C#N)cc3)cc2oc1=O	48%	5.48	5.55	5.37							
Cc1cc2ccc(OCc3ccc(CN(C)Cc4cccc(Cl)c4)cc3)cc2oc1=O	0%	5.35	5.89			29%					
Cc1c(C)c2ccc(OCCCN(C)Cc3ccccc3)cc2oc1=O	35%	6.48	5.89	5.11			6.00			6.87	17%
Cc1c(C)c2ccc(OCCCCCN(C)Cc3cccc(C#N)c3)cc2oc1=O		5.60	5.64	5.39	5.28						
Cc1c(C)c2ccc(OCc3ccc(CN(C)Cc4cccc(Cl)c4)cc3)cc2oc1=O	7%	5.47	6.18			48%					
CN(Cc1ccccc1)Cc1ccc(COc2ccc3cc(C#N)c(=O)oc3c2)cc1	0%		6.70	5.26				41%			
CCN(CCCCCOc1ccc2c(C)c(C)c(=O)oc2c1)Cc1ccccc1		5.11	6.12	6.03	5.02						
CN(Cc1ccc(C#N)cc1)Cc1ccc(COc2ccc3cc(C#N)c(=O)oc3c2)cc1	0%	6.00				14%					

SMILES	inhibition at 10 µM [1]	pIC50 [2]	pIC50 (Acetylcholinesterase [3])	pIC50 (Cholinesterase)	pIC50 [4]	inhibition [5]	pIC50 (Acetylcholinesterase [6])	inhibition at 10 µM [7]	pIC50 [8]	pIC50 [9]	inhibition at 10 µM [10]
CN(Cc1ccccc1)Cc1cccc(COc2ccc3ccc(=O)oc3c2)c1			5.64	6.00							
O=c1cc(CO)c2ccc(OCc3ccc(CNCc4ccccc4)cc3)cc2o1	19%	6.28	6.36	6.24							
Cc1c(C)c2ccc(OCCCCN(C)Cc3ccccc3)cc2oc1=O		5.96	6.31	5.43	5.18		6.10		6.32	7.02	
Cc1c(C)c2ccc(OCCCCCN(C)Cc3ccccc3)cc2oc1=O		6.01	6.26	5.55	5.38						
CCN(CC)Cc1ccc(COc2ccc3ccc(=O)oc3c2)cc1	9%		5.54	5.47				44%			
CN(Cc1ccc(C#N)cc1)Cc1ccc(COc2ccc3ccc(=O)oc3c2)cc1	6%	6.57	5.25	5.36			5.22			7.35	0%
CN(C)Cc1cccc(COc2ccc3ccc(=O)oc3c2)c1		5.49		5.28	5.00						
Cc1cc(=O)oc2cc(OCc3ccc(CN(C)Cc4cccc(Cl)c4)cc3)ccc12	0%	5.30	6.92			47%	6.00				
Cc1c(C)c2ccc(OCCCCCN(C)Cc3cccc(Cl)c3)cc2oc1=O	42%	5.05	6.54	5.59							
Cc1cc2ccc(OCc3ccc(CN(C)Cc4ccccc4)cc3)cc2oc1=O	0%	5.62	6.59	5.96			6.30				
CN(Cc1cccc(C#N)c1)Cc1cccc(COc2ccc3ccc(=O)oc3c2)c1	2%	5.43	5.38	5.55							
Cc1cc(=O)oc2cc(OCc3ccc(CN(C)Cc4ccc(C#N)cc4)cc3)ccc12	10%	6.39	5.48			29%	5.07			7.41	39%
COc1cccc(CN(C)Cc2ccc(COc3ccc4ccc(=O)oc4c3)cc2)c1	20%	5.54	5.34	5.85							
CN(Cc1ccc(COc2ccc3ccc(=O)oc3c2)cc1)Cc1cccc(C#N)c1	5%	5.55	5.13	5.39							
Cc1cc2ccc(OCc3ccc(CN(C)Cc4ccc(C#N)cc4)cc3)cc2oc1=O	15%	5.77	5.15			16%				7.77	11%
O=c1ccc2ccc(OCc3ccc(CCNCc4ccccc4)cc3)cc2o1			5.33	6.19							
CN(C)Cc1ccc(COc2ccc3ccc(=O)oc3c2)cc1	17%	5.43	5.15	6.62							

— ChEMBL document CHEMBL3585305, “Structure-Based Design and Optimization of Multitarget-Directed 2H-Chromen-2-one Derivatives as Potent Inhibitors of Monoamine Oxidase B and Cholinesterases” (J Med Chem, 2015)
